According to patent US20130281449A1, “Oxazine Derivatives and their Use in the Treatment of Neurological Disorders” (NOVARTIS AG, priority 2011, published 2013):
Where a name gives a salt, the structure may show the parent alone.

Columns and labels:
[1] = test system: Cellular Release of Amyloid Peptide 1-40; experiment: Test 4: Inhibition of Cellular Release of Amyloid Peptide 1-40; type: cell-based, Chinese hamster; settings: Cricetulus griseus, 24 h; read-out: Amyloid-β1-40 release IC50
Method: Chinese hamster ovary cells are transfected with the human gene for amyloid precursor protein. The cells are plated at a density of 8000 cells/well into 96-well microtiter plates and cultivated for 24 hours in DMEM cell culture medium containing 10% FCS. The test compound is added to the cells at various concentrations, and the cells are cultivated for 24 hours in the presence of the test compound. […] The potency of the compound is calculated from the percentage of inhibition of amyloid peptide release as a function of the test compound concentration.

Human BACE-1 = Human BACE-1 (Homo sapiens, UniProt P56817); experiment: Test 1: Inhibition of Human BACE-1; type: biochemical; settings: mean IC50 values in Test 1; recombinant BACE-1, pH 4.5
Human BACE-1, sequence (P56817 46-457 limits assumed): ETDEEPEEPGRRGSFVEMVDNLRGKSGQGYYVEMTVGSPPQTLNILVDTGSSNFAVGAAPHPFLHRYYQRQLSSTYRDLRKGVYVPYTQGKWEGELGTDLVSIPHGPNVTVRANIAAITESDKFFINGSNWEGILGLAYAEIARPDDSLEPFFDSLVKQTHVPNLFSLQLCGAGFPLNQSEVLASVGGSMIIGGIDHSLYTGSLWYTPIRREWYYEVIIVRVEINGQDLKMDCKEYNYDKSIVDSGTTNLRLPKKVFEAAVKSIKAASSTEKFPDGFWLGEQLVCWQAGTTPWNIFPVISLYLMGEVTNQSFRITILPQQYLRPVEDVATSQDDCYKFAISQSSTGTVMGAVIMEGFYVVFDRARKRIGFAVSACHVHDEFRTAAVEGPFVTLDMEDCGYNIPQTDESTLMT
Method: Test 1: Inhibition of Human BACE-1
IC50 values are calculated from percentage of inhibition of BACE-1 activity as a function of the test compound concentration.

SMILES | IC50 [1] [nM] | IC50 (Human BACE-1) [nM]
C#CCOc1cnc(C(=O)Nc2ccc(F)c([C@]3(C(F)F)COCC(N)=N3)c2)c(N)n1 [Example 4, 3-Amino-5-prop-2-ynyloxy-pyrazine-2-carboxylic acid [3-((R)-5-amino-3-difluoromethyl-3,6-dihydro-2H-[1,4]oxazin-3-yl)-4-fluoro-phenyl]-amide] | 1 | 2
[2H]C([2H])([2H])OCc1cc(C#N)cnc1C(=O)Nc1ccc(F)c([C@]2(C)CO[C@@](C)(C(F)(F)F)C(N)=N2)c1 [Example 31, 5-Cyano-3-trideuteromethoxymethyl-pyridine-2-carboxylic acid [3-((3R,6R)-5-amino-3,6-dimethyl-6-trifluoromethyl-3,6-dihydro-2H-[1,4]oxazin-3-yl)-4-fluoro-phenyl]-amide] | 9 | 11
[2H]C([2H])([2H])OCc1cc(OC([2H])([2H])[2H])cnc1C(=O)Nc1ccc(F)c([C@]2(C(F)F)COCC(N)=N2)c1 [Example 10, 5-Trideuteromethoxy-3-trideuteromethoxymethyl-pyridine-2-carboxylic acid [3-((R)-5-amino-3-difluoromethyl-3,6-dihydro-2H-[1,4]oxazin-3-yl)-4-fluoro-phenyl]-amide] | 32 | 190
C[C@@]1(c2cc(NC(=O)c3ncc(C#N)cc3Cl)ccc2F)CO[C@@](C)(C(F)(F)F)C(N)=N1 [Example 17, 3-Chloro-5-cyano-pyridine-2-carboxylic acid [3-((3R,6R)-5-amino-3,6-dimethyl-6-trifluoromethyl-3,6-dihydro-2H-[1,4]oxazin-3-yl)-4-fluoro-phenyl]-amide hydrochloride] | 4 | 9
NC1=N[C@@](c2cc(NC(=O)c3ccc4c(Cl)c[nH]c4n3)ccc2F)(C(F)F)COC1 [Example 5, 3-Chloro-1H-pyrrolo[2,3-b]pyridine-6-carboxylic acid [3-((R)-5-amino-3-difIuoromethyl-3,6-dihydro-2H-[1,4]oxazin-3-yl)-4-fluoro-phenyl]-amide] | 14 | 12
Cc1cc(OC(F)F)cnc1C(=O)Nc1ccc(F)c([C@]2(C)CO[C@@](C)(C(F)(F)F)C(N)=N2)c1 [Example 24, 5-Difluoromethoxy-3-methyl-pyridine-2-carboxylic acid [3-((3R,6R)-5-amino-3(6-dimethyl-6-trifluoromethyl-3,6-dihydro-2H-[1,4]oxazin-3-yl)-4-fluoro-phenyl]-amide hydrochloride] | 6 | 14
N#Cc1cnc(C(=O)Nc2ccc(F)c([C@]3(CF)COC(CF)(CF)C(N)=N3)c2)c(Cl)c1 [Example 43, 3-Chloro-5-cyano-pyridine-2-carboxylic acid [3-((R)-5-amino-3,6,6-tris-fluoromethyl-3,6-dihydro-2H-[1,4]oxazin-3-yl)-4-fluoro-phenyl]-amide] | 22 | 24
NC1=N[C@@](c2cc(NC(=O)c3ncc(C(F)F)nc3N)ccc2F)(C(F)F)COC1 [Example 6, 3-Amino-5-difluoromethyl-pyrazine-2-carboxylic acid [3-((R)-5-amino-3-difluoromethyl-3,6-dihydro-2H-[1,4]oxazin-3-yl)-4-fluoro-phenyl]-amide] | 8 | 25
Cc1cc(C#N)cnc1C(=O)Nc1cc(F)c(F)c([C@]2(C(F)F)COCC(N)=N2)c1 [Example 14, 5-Cyano-3-methyl-pyridine-2-carboxylic acid [3-((R)-5-amino-3-difluoromethyl-3,6-dihydro-2H-[1,4]oxazin-3-yl)-4,5-difluoro-phenyl]-amide] | 9 | 20
[2H]C([2H])([2H])Oc1cnc(C(=O)Nc2cc(F)c(F)c([C@]3(C(F)F)COCC(N)=N3)c2)c(Cl)c1 [Example 15, 3-Chloro-5-trideuteromethoxy-pyridine-2-carboxylic acid [3-((R)-5-amino-3-difluoromethyl-3,6-dihydro-2H-[1,4]oxazin-3-yl)-4,5-difluoro-phenyl]-amide] | 21 | 32
N#Cc1cnc(C(=O)Nc2ccc(F)c([C@]3(C(F)F)COCC(N)=N3)c2)c(N)c1 [Example 11, 3-Amino-5-cyano-pyridine-2-carboxylic acid [3-((R)-5-amino-3-difluoromethyl-3,6-dihydro-2H-[1,4]oxazin-3-yl)-4-fluoro-phenyl]-amide] | 5 | 18
Cc1cc(C(F)F)cnc1C(=O)Nc1ccc(F)c([C@]2(C(F)F)COCC(N)=N2)c1 [Example 8, 5-Difluoromethyl-3-methyl-pyridine-2-carboxylic acid [3-((R)-5-amino-3-difluoromethyl-3,6-dihydro-2H-[1,4]oxazin-3-yl)-4-fluoro-phenyl]-amide hydrochloride] | 8 | 54
Cc1nc(C(=O)Nc2ccc(F)c([C@]3(C)CO[C@@](C)(C(F)(F)F)C(N)=N3)c2)c(C)o1 [Example 23, 2,5-Dimethyl-oxazole-4-carboxylic acid [3-((3R,6R)-5-amino-3,6-dimethyl-6-trifluoromethyl-3,6-dihydro-2H-[1,4]oxazin-3-yl)-4-fluoro-phenyl]-amide hydrochloride] | 160 | 67
Cc1cc(C#N)cnc1C(=O)Nc1ccc(F)c([C@]2(CF)COC(CF)(CF)C(N)=N2)c1 [Example 42, 5-Cyano-3-methyl-pyridine-2-carboxylic acid [3-((R)-5-amino-3,6,6-tris-fluoromethyl-3,6-dihydro-2H-[1,4]oxazin-3-yl)-4-fluoro-phenyl]-amide] | 13 | 12
N#Cc1cnc(C(=O)Nc2ccc(F)c([C@]3(C(F)F)COCC(N)=N3)c2)c(Cl)c1 [Example 2, 3-Chloro-5-cyano-pyridine-2-carboxylic acid [3-((R)-5-amino-3-difluoromethyl-3,6-dihydro-2H-[1,4]oxazin-3-yl)-4-fluoro-phenyl]-amide] | 11 | 32
NC1=N[C@@](c2cc(NC(=O)c3ncc(C(F)F)cc3N)ccc2F)(C(F)F)COC1 [Example 12, 3-Amino-5-difluoromethyl-pyridine-2-carboxylic acid [3-((R)-5-amino-3-difluoromethyl-3,6-dihydro-2H-[1,4]oxazin-3-yl)-4-fluorophenyl]-amide] | 10 | 38
COc1cnc(C(=O)Nc2ccc(F)c([C@]3(C)CO[C@@](C)(C(F)(F)F)C(N)=N3)c2)c(Cl)c1 [Example 18, 3-Chloro-5-methoxy-pyridine-2-carboxylic acid [3-((3R,6R)-5-amino-3,6-dimethyl-6-trifluoromethyl-3,6-dihydro-2H-[1,4]oxazin-3-yl)-4-fluoro-phenyl]-amide hydrochloride] | 9 | 20
Cc1cc(F)cnc1C(=O)Nc1ccc(F)c([C@]2(C)CO[C@@](C)(C(F)(F)F)C(N)=N2)c1 [Example 35, 5-Fluoro-3-methyl-pyridine-2-carboxylic acid [3-((3R,6R)-5-amino-3,6-dimethyl-6-trifluoro-methyl-3,6-dihydro-2H-[1,4]oxazin-3-yl)-4-fluoro-phenyl]-amide] | 88 | 
Cc1cc(C#N)cnc1C(=O)Nc1ccc(F)c(C2(C)COC(CF)(CF)C(N)=N2)c1 (racemic) [Example 37, 5-Cyano-3-methyl-pyridine-2-carboxylic acid [3-(5-amino-6,6-bis-fluoromethyl-3-methyl-3,6-dihydro-2H-[1,4]oxazin-3-yl)-4-fluoro-phenyl]-amide] | 4 | 
